In patent US11932658B2 (BRISTOL-MYERS SQUIBB COMPANY, priority 2016, dated 2024):

Biological target: T1, PAR4 (Homo sapiens, UniProt Q96RI0)
T1 construct: expressed in transfected cells; host or cells: HEK293 PAR4 Clone 1.2A (BMS Arctic ID 383940)
T1 sequence (Q96RI0 18-385): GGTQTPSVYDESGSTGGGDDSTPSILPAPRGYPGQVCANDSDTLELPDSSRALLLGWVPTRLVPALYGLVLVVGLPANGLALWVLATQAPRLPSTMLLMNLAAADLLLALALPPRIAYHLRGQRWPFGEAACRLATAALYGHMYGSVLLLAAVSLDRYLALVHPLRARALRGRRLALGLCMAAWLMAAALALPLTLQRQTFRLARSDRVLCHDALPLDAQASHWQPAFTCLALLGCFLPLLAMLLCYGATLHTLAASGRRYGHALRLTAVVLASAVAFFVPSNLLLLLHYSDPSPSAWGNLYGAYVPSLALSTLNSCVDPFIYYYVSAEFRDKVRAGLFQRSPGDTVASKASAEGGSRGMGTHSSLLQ
Assay: PAR4 FLIPR assay (antagonism of agonist peptide-induced calcium mobilization)
Type: cell-based
Summary of the method: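 Antagonism was taken as block of calcium mobilization evoked by the agonist peptide H-Ala-Phe(4-F)-Pro-Gly-Trp-Leu-Val-Lys-Asn-[…]-NH2, added after 30 min room-temperature compound preincubation in dye-loaded PAR4-transfected HEK293 cells (endogenous PAR1). Fluorescence was read on FDSS, with compound addition alone used as the agonist counter-screen; values come from 11-point concentration-response curves.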

## COc1cnc2c(-c3nc4cc(F)c5c(c4s3)C[C@@](C)(CO)O5)cc(Cl)cc2c1 [Example 285, (S)-(2-(6-chloro-3-methoxyquinolin-8-yl)-5-fluoro-7-methyl-7,8-dihydrobenzofuro[5,4-d]thiazol-7-yl)methanol]
  IC50: 1.5 nM

## COc1cnc2c(-c3nc4c(Cl)cc5c(c4s3)OC[C@H](COC(=O)Nc3cncc(C)c3)O5)cc(C)cc2n1 [Example 63]
  IC50: 4.3 nM

## COc1cnc2c(-c3nc4ccc5c(c4s3)OC[C@H](COC(=O)Nc3cnc(C)nc3)O5)cc(C)cc2c1 [Example 268, (R)-(2-(3-methoxy-6-methylquinolin-8-yl)-7,8-dihydro-[1,4]dioxino[2′,3′:3,4]benzo[1,2-d]thiazol-7-yl)methyl (2-methylpyrimidin-5-yl)carbamate]
  IC50: 4.4 nM

## COc1cnc2c(-c3nc4c(C)cc5c(c4s3)OCC(COC(=O)Nc3ccnc(F)c3)O5)cc(C)cc2n1 (centres unmarked) [Example 118, (2-(2-methoxy-7-methylquinoxalin-5-yl)-4-methyl-7,8-dihydro-[1,4]dioxino[2′,3′:3,4]benzo[1,2-d]thiazol-7-yl)methyl (2-fluoropyridin-4-yl)carbamate]
  IC50: 16 nM

## COc1cnc2c(-c3nc4ccc5c(c4s3)OC[C@H](COC(=O)Nc3cnc(C)nc3)O5)cc(Cl)cc2c1 [Example 266, (R)-(2-(6-chloro-3-methoxyquinolin-8-yl)-7,8-dihydro-[1,4]dioxino[2′,3′:3,4]benzo[1,2-d]thiazol-7-yl)methyl (2-methylpyrimidin-5-yl)carbamate]
  IC50: 2.1 nM

## CCOc1cnc2c(-c3nc4cc(F)c5c(c4s3)[C@H](C)[C@@H](CO)O5)cc(C)cc2n1 [Example 259, ((7S,8S)-2-(2-ethoxy-7-methylquinoxalin-5-yl)-5-fluoro-8-methyl-7,8-dihydrobenzofuro[5,4-d]thiazol-7-yl)methanol]
  IC50: 1.1 nM

## COc1cnc2c(-c3nc4c(C)cc5c(c4s3)OCC(COC(=O)Nc3ccc(N4CCN(C(=O)OC(C)(C)C)CC4)nc3)O5)cc(C)cc2n1 (centres unmarked) [Example 136, tert-butyl 4-(5-((((2-(2-methoxy-7-methylquinoxalin-5-yl)-4-methyl-7,8-dihydro-[1,4]dioxino[2′,3′:3,4]benzo[1,2-d]thiazol-7-yl)methoxy)carbonyl)amino)pyridin-2-yl) piperazine-1-carboxylate]
  IC50: 210 nM

## COc1cnc2c(-c3nc4c(C)cc5c(c4s3)OC[C@H](COC(=O)Nc3ccnc(C)c3)O5)cc(C)cc2n1 [Example 44, (R)-(2-(2-methoxy-7-methylquinoxalin-5-yl)-4-methyl-7,8-dihydro-[1,4]dioxino[2′,3′:3,4]benzo[1,2-d]thiazol-7-yl)methyl (2-methylpyridin-4-yl)carbamate]
  IC50: 0.8 nM

## COc1cnc2c(-c3nc4ccc5c(c4s3)CC(CNC(=O)OCC(C)C)O5)cc(C)cc2n1 (centres unmarked) [Example 198, Isobutyl ((2-(2-methoxy-7-methylquinoxalin-5-yl)-7,8-dihydrobenzofuro[5,4-d]thiazol-7-yl)methy 1)carbamate]
  IC50: 3.1 nM

## COc1cnc2c(-c3nc4cc(F)c5c(c4s3)C[C@@H](CNC(=O)N3CCOCC3)O5)cc(C)cc2n1 [Example 258, (S)-N-((5-fluoro-2-(2-methoxy-7-methylquinoxalin-5-yl)-7,8-dihydrobenzofuro[5,4-d]thiazol-7-yl)methyl)morpholine-4-carboxamide]
  IC50: 8.1 nM

## COc1cnc2c(-c3nc4c(Cl)cc5c(c4s3)OC[C@H](COC(=O)Nc3cccc(C#N)c3)O5)cc(C)cc2n1 [Example 27, (R)-(4-chloro-2-(2-methoxy-7-methylquinoxalin-5-yl)-7,8-dihydro-[1,4]dioxino[2′,3′:3,4]benzo[1,2-d]thiazol-7-yl)methyl (3-cyanophenyl)carbamate]
  IC50: 2.2 nM

## COc1cnc2c(-c3nc4ccc5c(c4s3)C[C@@H](CNC(=O)OCc3cccc(C#N)c3)O5)cc(C)cc2n1 [Example 231, (S)-3-cyanobenzyl ((2-(2-methoxy-7-methylquinoxalin-5-yl)-7,8-dihydrobenzofuro[5,4-d]thiazol-7-yl)methy 1)carbamate]
  IC50: 5.8 nM

## COCCOC(=O)NC[C@@H]1Cc2c(c(F)cc3nc(-c4cc(C)cc5nc(OC)cnc45)sc23)O1 [Example 250, (S)-2-methoxyethyl ((5-fluoro-2-(2-methoxy-7-methylquinoxalin-5-yl)-7,8-dihydrobenzofuro[5,4-d]thiazol-7-yl)methyl)carbamate]
  IC50: 2.3 nM

## COc1cnc2c(-c3nc4ccc5c(c4s3)OC[C@H](COC(=O)Nc3cnc(C)nc3)O5)cc(C)cc2n1 [Example 103, (R)-(2-(2-methoxy-7-methylquinoxalin-5-yl)-7,8-dihydro-[1,4]dioxino [2′,3′:3,4]benzo[1,2-d]thiazol-7-yl)methyl (2-methylpyrimidin-5-yl)carbamate]
  IC50: 2.8 nM

## COc1cnc2c(-c3nc4cc(F)c5c(c4s3)C[C@H](COC(=O)Nc3ccnc(C)c3)O5)cc(C)cc2n1 [Example 160, (R)-(5-fluoro-2-(2-methoxy-7-methylquinoxalin-5-yl)-7,8-dihydrobenzofuro[5,4-d]thiazol-7-yl)methyl (2-methylpyridin-4-yl)carbamate]
  IC50: 0.6 nM

## COc1cnc2c(-c3nc4c(C(O)C(C)(C)C)cc5c(c4s3)OCCO5)cc(C)cc2n1 (single isomer, unassigned) [Example 277, 1-(2-(2-methoxy-7-methylquinoxalin-5-yl)-7,8-dihydro-[1,4]dioxino[2′,3′:3,4]benzo[1,2-d]thiazol-4-yl)-2,2-dimethylpropan-1-ol]
  IC50: 2.3 nM

## COc1cnc2c(-c3nc4c(C)cc5c(c4s3)OC[C@H](COC(=O)Nc3cnc(F)c(C)c3)O5)cc(C)cc2n1 [Example 61, (R)-(2-(2-methoxy-7-methylquinoxalin-5-yl)-4-methyl-7,8-dihydro-[1,4]dioxino [2′,3′:3,4]benzo[1,2-d]thiazol-7-yl)methyl (6-fluoro-5-methylpyridin-3-yl)carbamate]
  IC50: 23 nM

## COc1cnc2c(-c3nc4c(C(F)F)cc5c(c4s3)OC[C@H](COC(=O)Nc3ccc(C)nc3)O5)cc(C)cc2n1 [Example 80, (R)-(4-(difluoromethyl)-2-(2-methoxy-7-methylquinoxalin-5-yl)-7,8-dihydro-[1,4]dioxino[2′,3′:3,4]benzo[1,2-d]thiazol-7-yl)methyl (6-methylpyridin-3-yl)carbamate]
  IC50: 33 nM

## COc1cnc2c(-c3nc4c(Cl)cc5c(c4s3)OC[C@H](COC(=O)Nc3cncc(C#N)c3)O5)cc(C)cc2n1 [Example 37, (R)-(4-chloro-2-(2-methoxy-7-methylquinoxalin-5-yl)-7,8-dihydro-[1,4]dioxino[2′,3′:3,4]benzo[1,2-d]thiazol-7-yl)methyl (5-cyanopyridin-3-yl)carbamate]
  IC50: 1.5 nM

## COc1cnc2c(-c3nc4c(C)cc5c(c4s3)OCC(COC(=O)Oc3cccnc3)O5)cc(C)cc2n1 (centres unmarked) [Example 6, (2-(2-methoxy-7-methylquinoxalin-5-yl)-4-methyl-7,8-dihydro-[1,4]dioxino[2′,3′:3,4]benzo[1,2-d]thiazol-7-yl)methyl pyridin-3-yl carbonate]
  IC50: 10 nM

## COc1cnc2c(-c3nc4cc(F)c5c(c4s3)C[C@H](COC(=O)Nc3ccc(C(=O)N(C)C)cc3)O5)cc(C)cc2n1 [Example 204, (R)-(5-fluoro-2-(2-methoxy-7-methylquinoxalin-5-yl)-7,8-dihydrobenzofuro[5,4-d]thiazo 1-7-yl)methyl (4-(dimethylcarbamoyl)phenyl)carbamate]
  IC50: 2.3 nM

## COc1cnc2c(-c3nc4ccc5c(c4s3)OC[C@H](COC(=O)Nc3cnc(OC[C@H](C)O)nc3)O5)cc(Cl)cc2c1 [Example 288, ((R)-2-(6-chloro-3-methoxyquinolin-8-yl)-7,8-dihydro-[1,4]dioxino[2′,3′:3,4]benzo[1,2-d]thiazol-7-yl)methyl (2-((S)-2-hydroxypropoxy)pyrimidin-5-yl)carbamate]
  IC50: 2.2 nM

## COc1cnc2c(-c3cc4c5c(ccc4o3)O[C@@H](COC(=O)Nc3ccnc(C)c3)CO5)cc(C)cc2n1 [Example 12, (R)-(8-(2-methoxy-7-methylquinoxalin-5-yl)-2,3-dihydro-[1,4]dioxino[2,3-e]benzofuran-3-yl)methyl (2-methylpyridin-4-yl)carbamate]
  IC50: 3.8 nM

## COc1cnc2c(-c3nc4c(C(O)C5(C)CCCCC5)cc5c(c4s3)OCCO5)cc(C)cc2n1 (centres unmarked) [Example 278, (2-(2-methoxy-7-methylquinoxalin-5-yl)-7,8-dihydro-[1,4]dioxino[2′,3′:3,4]benzo[1,2-d]thiazol-4-yl)(1-methylcyclohexyl)methanol]
  IC50: 19 nM

## COc1cnc2c(-c3nc4c(C)cc5c(c4s3)OC[C@H](COC(=O)Nc3cncc(C)c3)O5)cc(C)cc2n1 [Example 57, (R)-(2-(2-methoxy-7-methylquinoxalin-5-yl)-4-methyl-7,8-dihydro-[1,4]dioxino[2′,3′:3,4]benzo[1,2-d]thiazol-7-yl)methyl (5-methylpyridin-3-yl)carbamate]
  IC50: 9.7 nM

## Cc1cc(-c2nc3c(F)cc4c(c3s2)OCC(CNC(=O)OC(C)(C)C)O4)c2ncc(OC(F)F)nc2c1 (centres unmarked) [Example 21, tert-butyl ((2-(2-(difluoromethoxy)-7-methylquinoxalin-5-yl)-4-fluoro-7,8-dihydro-[1,4]dioxino[2′,3′:3,4]benzo[1,2-d]thiazol-7-yl)methyl)carbamate]
  IC50: 10 nM
